Here are results for 82 molecules from PubChem BioAssay AID1159585 (Gregory J. Crowther, 2016).

SMILES strings stand for the structures.

As usually defined, the IC50 is the concentration needed to halve the response being measured.

Calcium-dependent protein kinase 1 (Plasmodium falciparum (isolate 3D7)), sequence (P62344 whole entry, looked up): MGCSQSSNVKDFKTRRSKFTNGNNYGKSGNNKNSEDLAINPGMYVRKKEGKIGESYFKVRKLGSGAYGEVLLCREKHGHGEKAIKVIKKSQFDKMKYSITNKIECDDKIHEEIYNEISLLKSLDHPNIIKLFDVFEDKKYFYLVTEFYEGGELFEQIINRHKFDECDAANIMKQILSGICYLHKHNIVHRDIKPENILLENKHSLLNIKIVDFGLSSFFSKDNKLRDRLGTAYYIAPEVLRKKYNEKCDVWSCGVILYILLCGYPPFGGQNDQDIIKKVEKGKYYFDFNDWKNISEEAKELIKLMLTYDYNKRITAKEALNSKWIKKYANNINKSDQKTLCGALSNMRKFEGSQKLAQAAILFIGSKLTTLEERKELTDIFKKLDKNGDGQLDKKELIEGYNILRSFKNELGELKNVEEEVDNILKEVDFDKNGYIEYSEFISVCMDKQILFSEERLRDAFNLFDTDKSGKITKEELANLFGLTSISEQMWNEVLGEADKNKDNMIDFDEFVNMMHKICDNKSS

The test concerns the target Calcium-dependent protein kinase 1 (Plasmodium falciparum (isolate 3D7)) (UniProt P62344). The test is described as follows: PfCDPK1 kinase inhibitors, biochemical, TCAMS library (AID 1159585).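 Further: inhibitors leave more ATP so luminescence rises with inhibition.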 The settings on record: recombinant PfCDPK1, Kinase-Glo ATP depletion luminescence.
As for `CN1CCN(Cc2ccc(-c3ccc4c(Nc5cc(O)c(Cl)cc5F)ccnc4c3)o2)CC1`, the IC50 was 131 nM. Take `Oc1cc(-c2nc(C3(CNCc4ccc(Cl)cc4)CCCCC3)[nH]c2-c2ccncc2)ccc1Cl`: the IC50 is 846 nM. Under `CCn1c(-c2nc(-c3ccnc(N4CCN(C)CC4)c3)cnc2N)nc2cc(S(C)(=O)=O)ccc21` stands 654 nM; under `CN(C)CCOc1ccc(-c2cc(-c3ccnc(N)n3)c(-c3ccc(Cl)c(O)c3)o2)cc1`, 684 nM; under `NCC(NC(=O)c1ccc(-c2c[nH]c3ncccc23)s1)c1ccccc1` (configuration not stated), 29 nM. For the molecule `CCn1c(-c2nonc2N)nc2c(-c3cccc(NC(=O)Nc4ccccc4Cl)c3)ncc(OCCCN)c21`, the 50% inhibitory concentration (IC50) is 72 nM. Under `CC(C)(CNCc1ccc(C(F)(F)F)cc1)c1nc(-c2ccc(Cl)c(O)c2)c(-c2ccnc(N)n2)[nH]1` stands 353 nM; under `COc1cc(-c2nc(C(C)(C)CN)[nH]c2-c2ccncc2)ccc1Br`, 159 nM.

As for `CCCN1CCN(CCNC(=O)c2cccc(Nc3nccc(Nc4ccc(Oc5ccccc5)cc4)n3)c2)CC1`, the IC50 was 336 nM.

For `CS(=O)(=O)Cc1ccc(Nc2nccc(-c3c(-c4cccc(NC(=O)C5CCCCC5)c4)nn4ncccc34)n2)cc1`, the half-inhibitory concentration (IC50) is 37 nM. For the molecule `CNC(=O)c1ccccc1Nc1nc(Nc2ccc(C(=O)O)cc2)ncc1Cl`, the half-inhibitory concentration (IC50) was 246 nM. With `CNC(=O)c1ccccc1Nc1nc(Nc2ccc(N3CCOCC3)cc2)ncc1Cl` the figure was 144 nM; with `O=C(Nc1cccc(-c2nn3ccccc3c2-c2ccnc(Nc3ccc(C(=O)N4CCOCC4)cc3)n2)c1)c1c(F)cccc1F`, 92 nM; with `CN1CCN(Cc2cccc(-c3ccc4c(Nc5cc(O)c(Cl)cc5F)ccnc4c3)c2)CC1`, 762 nM.

Consider `Fc1cc(Cl)ccc1Nc1ccnc2cc(-c3ccc(CNCCN4CCOCC4)o3)ccc12`, for which the IC50 is 383 nM. Under `CN(C)CCNCc1nc(-c2ccc3c(Nc4ccc(Oc5ccccc5)cc4)ccnc3c2)cs1` stands 887 nM. With `COc1cccc(Nc2nccc(-c3c(-c4cccc(NC(=O)c5c(F)cccc5F)c4)nn4ccccc34)n2)c1` the figure was 87 nM. Under `CN(C)CCNCc1cccc(-c2ccc3c(Nc4ccc(Oc5ccccn5)cc4)ccnc3c2)c1` stands 845 nM; under `c1ccc(Oc2ccc(Nc3ccnc(Nc4ccc5cn[nH]c5c4)n3)cc2)cc1`, 765 nM; under `O=C(NCCCN1CCCCC1)c1cccc(Nc2nccc(Nc3ccc(Oc4ccccc4)cc3)n2)c1`, 243 nM. As for `CNC(=O)c1ccccc1Nc1nc(Nc2cccc(CS(C)(=O)=O)c2)ncc1C`, the IC50 is 145 nM. Regarding `COc1ccc2nc(-c3cc(-c4ccc(NC(C)=O)cc4)cnc3N)[nH]c2c1`, the IC50 was 501 nM.

For the molecule `CC(C)(CNC(=O)C1CCN(Cc2ccoc2)CC1)c1nc(-c2ccc(Cl)c(O)c2)c(-c2ccncc2)[nH]1`, the IC50 was 425 nM. With `CCOC(=O)c1cccc(NC(=O)Nc2cccc(-c3ncc(OCCCN)c4c3nc(-c3nonc3N)n4CC)c2)c1` the figure was 294 nM.

With `CS(=O)(=O)Cc1ccc(Nc2nccc(-c3c(-c4cccc(NC(=O)c5c(F)cccc5F)c4)nn4ncccc34)n2)cc1`, the IC50 was 11 nM. As for `CN1CCN(c2ccc(Nc3nccc(-c4cnn5ncccc45)n3)cc2Cl)CC1`, the IC50 is 232 nM. Under `CCn1c(-c2nonc2N)nc2c(-c3cccc(NC(=O)Nc4cccc(C(F)(F)F)c4)c3)ncc(OCCCN)c21` stands 15 nM; under `Nc1ncc(-c2cn[nH]c2)cc1-c1nc2ccc(F)cc2[nH]1`, 150 nM; under `CNCC(C)(C)c1nc(-c2ccc(Cl)c(O)c2)c(-c2ccncc2)[nH]1`, 49 nM. Under `CC(C)(C)CNCC(C)(C)c1nc(-c2ccc(Cl)c(O)c2)c(-c2ccncc2)[nH]1` stands 159 nM; under `CC(C)(CN)c1nc(-c2ccc(Br)c(O)c2)c(-c2ccncc2)[nH]1`, 19 nM; under `CC(C)(CNCc1ccccc1)c1nc(-c2ccc(Cl)c(O)c2)c(-c2ccncc2)[nH]1`, 190 nM.

Consider `Nc1ncc(-c2cn[nH]c2)cc1-c1nc2ncc(Cl)cc2[nH]1`, for which the IC50 is 280 nM.

As to `O=C(NCCN1CCCC1)c1cccc(Nc2nccc(Nc3ccc(Oc4ccccc4)cc3)n2)c1`, the IC50 is 213 nM. Take `c1ccc(Oc2ccc(Nc3ccnc4cc(-c5ccc(CNCCN6CCOCC6)o5)ccc34)cc2)cc1`: the IC50 is 435 nM. As to `CCn1c(-c2nonc2N)nc2c(-c3cccc(NC(=O)Nc4ccc(C(F)(F)F)cc4)c3)ncc(OCCCN)c21`, the IC50 is 959 nM. Under `NC(=O)c1ccccc1Nc1nc(Nc2cccc(N3CCN(CCO)CC3)c2)ncc1Cl` stands 58 nM. Under `CCn1c(-c2nonc2N)nc2c(-c3ccccc3)ncc(OCCCCNCCc3ncc[nH]3)c21` stands 94 nM.

Consider `COc1ccc(C(=O)NCC(C)(C)c2nc(-c3ccc(Cl)c(O)c3)c(-c3ccncc3)[nH]2)cc1OCCN(C(C)C)C(C)C`, for which the IC50 is 387 nM.

Consider `CC(C)(CNCCOc1ccc(Cl)cc1)c1nc(-c2ccc(Cl)c(O)c2)c(-c2ccnc(N)n2)[nH]1`, for which the IC50 was 755 nM. Under `c1ccc(Oc2ccc(Nc3ccnc(Nc4ccc(OCCN5CCCCC5)cc4)n3)cc2)cc1` stands 701 nM. Regarding `O=C(NCCN1CCC(c2ccncc2)CC1)c1ccc(Nc2nccc(Nc3ccc(Oc4ccccc4)cc3)n2)cc1`, the IC50 is 135 nM.

As to `Oc1cccc(Nc2ccnc3cc(-c4nccs4)ccc23)c1`, the IC50 is 997 nM. With `Cc1cccc2[nH]c(-c3cc(-c4cn[nH]c4)cnc3N)nc12` the figure was 296 nM; with `COCCNCc1ncsc1-c1ccc2c(Nc3cc(O)c(Cl)cc3F)ccnc2c1`, 150 nM; with `CC(C)(CNC(=O)[C@@H]1CCCCN1)c1nc(-c2ccc(Cl)c(O)c2)c(-c2ccncc2)[nH]1`, 192 nM. Under `CN(C(=O)c1cc2c(-c3cncnc3)cccc2[nH]1)c1ccccc1` stands 271 nM. With `CCn1c(-c2nonc2N)nc2c(-c3cccc(NC(=O)NC45CC6CC(CC(C6)C4)C5)c3)ncc(OCCCN)c21` the figure was 84 nM; with `Cn1c(Nc2cc(C(C)(C)C)on2)nc2cc(Nc3ccnc(Nc4cccc(CS(C)(=O)=O)c4)n3)ccc21`, 114 nM; with `CN1CCN(c2ccc(Nc3ncc(Cl)c(Nc4cccnc4C(N)=O)n3)cc2)CC1`, 12 nM. On to `O=C(NC1CC1)c1ccc(Nc2nccc(-c3c(-c4cccc(NC(=O)c5c(F)cccc5F)c4)nn4ccccc34)n2)cc1`, for which the IC50 was 26 nM.

On to `Cc1ccc(Nc2nc3cc(N(C)c4ccnc(Nc5cccc(CCS(C)(=O)=O)c5)n4)ccc3n2C)cc1`, for which the IC50 is 160 nM. For `O=C(Nc1cccc(-c2nn3ncccc3c2-c2ccnc(Nc3ccccc3)n2)c1)c1c(F)cccc1F`, the IC50 is 39 nM.

As to `N#Cc1ccc(-c2cnc3ccc(NCCc4cccnc4)nn23)cc1`, the IC50 is 246 nM.

`CC(C)(NCc1ncc[nH]1)c1nc(-c2ccc(Cl)c(O)c2)c(-c2ccncc2)[nH]1`: the concentration for half-maximal inhibition (IC50) is 144 nM. As to `COc1cccc(CNCC(C)(C)c2nc(-c3ccc(Cl)c(O)c3)c(-c3ccncc3)[nH]2)c1`, the IC50 is 275 nM. Under `CC(C)(CNCc1ccc(F)c(F)c1)c1nc(-c2ccc(Cl)c(O)c2)c(-c2ccncc2)[nH]1` stands 451 nM; under `Cc1cc(Nc2ncc(Cl)c(Nc3ccccc3C(N)=O)n2)n[nH]1`, 76 nM; under `COCCNCc1cccc(-c2ccc3c(Nc4ccc(Oc5cccnc5)cc4)ccnc3c2)c1`, 913 nM.

For the molecule `CN1CCN(Cc2ccc(-c3ccc4c(Nc5ccc(Cl)cc5F)ccnc4c3)o2)CC1`, the IC50 was 406 nM. Under `COc1ccc(Nc2ncc3c(-c4cccc(NC(=O)Cc5cccc(O)c5)c4)c[nH]c3n2)cc1OC` stands 312 nM; under `NC[C@H](CC1CCCCC1)NC(=O)c1ccc(-c2ccnc3[nH]ccc23)s1`, 492 nM. Under `CN(C)CCNCc1ccc(-c2ccc3c(Nc4ccc(Cl)cc4F)ccnc3c2)o1` stands 374 nM.

Turning to `CC(C)(CNC(=O)[C@H]1CCCN1)c1nc(-c2ccc(Cl)c(O)c2)c(-c2ccncc2)[nH]1`, the IC50 was 179 nM. As for `c1cncc(Oc2ccc(Nc3ccnc4cc(-c5cccc(CNCCN6CCOCC6)c5)ccc34)cc2)c1`, the 50% inhibitory concentration (IC50) is 705 nM. As for `NCCNC(=O)c1ccc(-c2cnc3[nH]cc(-c4ccc(C(N)=O)cc4)c3c2)cc1`, the IC50 is 24 nM. With `CCn1c(-c2nonc2N)nc2c(-c3cccc(NC(=O)Nc4cccc(C#N)c4)c3)ncc(OCCCN)c21` the figure was 182 nM; with `Cc1nc(-c2cccc(Nc3ccnc4cc(-c5nccs5)ccc34)c2)no1`, 191 nM.

For the molecule `O=S1(=O)NCc2ccc(Nc3nccc(Nc4ccc5c(cnn5Cc5ccccc5)c4)n3)cc21`, the IC50 is 110 nM. With `CNC(=O)c1ccccc1Nc1nc(Nc2ccc(CCN3CCN(C)CC3)cc2)ncc1Cl`, the IC50 is 47 nM. Under `COc1ccc(Nc2ncc3c(-c4cccc(NC(=O)Cc5ccc(O)cc5)c4)c[nH]c3n2)cc1OC` stands 98 nM; under `Oc1cc(-c2nc(-c3ccccc3)[nH]c2-c2ccncc2)ccc1Cl`, 975 nM; under `CN1CCN(c2ccc(Nc3nccc(-c4c(-c5cccc(NC(=O)c6c(F)cccc6F)c5)nn5ccccc45)n3)cc2)CC1`, 35 nM.

Regarding `CCn1c(-c2nonc2N)nc2c(-c3cccc(NC(=O)Nc4ccccc4OC)c3)ncc(OCCCN)c21`, the IC50 is 32 nM. Under `CN(C)CCOc1ccc(-c2cc(-c3ccc(Cl)c(O)c3)c(-c3ccnc(N)n3)o2)cc1` stands 168 nM. Under `CS(=O)(=O)Nc1cccc(-c2cnc3[nH]cc(-c4cccc(CN)c4)c3c2)c1` stands 387 nM; under `CC(C)(CNC(=O)C1CCN(CCOc2ccc(F)c(F)c2)CC1)c1nc(-c2ccc(Cl)c(O)c2)c(-c2ccncc2)[nH]1`, 664 nM. Under `CN1CCN(Cc2cccc(Nc3nccc(Nc4ccc(Oc5ccccc5)cc4)n3)c2)CC1` stands 801 nM; under `CN(C)Cc1ccc(-c2ccc3c(Nc4ccc(Cl)cc4F)ccnc3c2)o1`, 185 nM; under `CCN(CC)CCOc1ccc(Nc2ncc3cc(-c4c(Cl)cccc4Cl)c(=O)n(C)c3n2)cc1`, 780 nM. Consider `O=C(NCCCN1CCCCC1)c1ccc(Nc2nccc(Nc3ccc(Oc4ccccc4)cc3)n2)cc1`, for which the IC50 is 94 nM. Under `CN(C)CCN(C)Cc1ccc(-c2ccc3c(Nc4ccc(Cl)cc4F)ccnc3c2)o1` stands 604 nM.
